From ChEMBL document CHEMBL1140582, “Development of CXCR3 antagonists. Part 2: Identification of 2-amino(4-piperidinyl)azoles as potent CXCR3 antagonists” (Bioorg Med Chem Lett, 2007)
In brackets after ≈: the same amount, converted by molar mass.

Experiments:
[1] = Partition coefficient, log D at pH 7.4; details: octanol/water
[2] = Intrinsic clearance in mouse microsomes at 0.5 uM; assay type: ADME, Microsome
[3] = target: T1, C-X-C chemokine receptor type 3 (Homo sapiens, UniProt P49682); assay: Binding affinity to human CXCR3 receptor expressed in CHO membrane by ITAC-stimulated GTP gammaS assay; assay type: cell membranes
T1 sequence (P49682 whole entry): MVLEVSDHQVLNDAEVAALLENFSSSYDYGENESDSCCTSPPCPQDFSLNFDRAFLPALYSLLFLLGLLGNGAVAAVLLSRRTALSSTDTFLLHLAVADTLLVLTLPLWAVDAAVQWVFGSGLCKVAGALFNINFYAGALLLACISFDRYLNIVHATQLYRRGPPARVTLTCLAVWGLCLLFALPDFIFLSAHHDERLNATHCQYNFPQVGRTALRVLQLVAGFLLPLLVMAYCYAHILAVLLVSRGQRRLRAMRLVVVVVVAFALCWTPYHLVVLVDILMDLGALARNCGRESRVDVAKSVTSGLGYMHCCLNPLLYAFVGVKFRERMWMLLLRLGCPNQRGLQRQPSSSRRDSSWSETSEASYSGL

Cytochrome P450 2D6 = Cytochrome P450 2D6 (Homo sapiens, UniProt P10635); assay: Inhibition of CYP2D6; assay type: ADME
[4] = Half life in mouse at 10 mg/kg, po; assay type: ADME, organism-based; set-up: dose 10 mg/kg, route oral; details: in vivo
Homo sapiens = species on record: Homo sapiens; assay: Protein binding in human plasma; details: read-out: PPB (converted)
[5] = AUC in mouse; assay type: ADME, organism-based; details: plasma
[6] = Clearance in mouse plasma at 10 mg/kg, po; assay type: ADME, organism-based; set-up: dose 10 mg/kg, route oral
[7] = Solubility of the compound; assay type: physicochemical
[8] = Cmax in mouse; assay type: ADME, organism-based; details: in vivo
CYP2D6 = CYP2D6 (Homo sapiens, UniProt P10635); assay: Inhibition of CYP2D6 at 50 uM; assay type: ADME
[9] = target: T2, C-X-C chemokine receptor type 3 (Homo sapiens) (UniProt P49682); assay: Inhibition of human CXCR3 expressed in CHO membrane at 10 uM by ITAC-stimulated GTP gammaS assay; assay type: cell membranes
T2 sequence (whole entry): T1 sequence (P49682 whole entry)

Cytochrome P450 2D6, sequence (P10635 whole entry): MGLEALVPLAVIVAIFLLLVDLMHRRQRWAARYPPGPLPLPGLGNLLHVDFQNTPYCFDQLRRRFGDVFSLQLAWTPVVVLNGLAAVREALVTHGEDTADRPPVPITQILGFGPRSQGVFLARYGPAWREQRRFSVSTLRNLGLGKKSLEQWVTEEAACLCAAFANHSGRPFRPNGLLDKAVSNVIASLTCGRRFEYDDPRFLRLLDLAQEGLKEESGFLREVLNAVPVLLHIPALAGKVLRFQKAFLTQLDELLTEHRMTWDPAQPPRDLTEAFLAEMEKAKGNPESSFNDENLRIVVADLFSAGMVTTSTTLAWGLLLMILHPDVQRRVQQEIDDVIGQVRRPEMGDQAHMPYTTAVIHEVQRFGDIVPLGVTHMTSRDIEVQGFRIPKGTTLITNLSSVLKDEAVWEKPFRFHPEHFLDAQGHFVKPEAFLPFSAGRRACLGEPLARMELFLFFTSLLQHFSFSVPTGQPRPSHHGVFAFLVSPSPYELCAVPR
CYP2D6, sequence (P10635 whole entry): as above

SMILES	logD [1]	clearance [2] [µL/min/mg]	Ki [3] [nM]	other results
CC1(C)[C@H]2CC=C(CN3CCC(Nc4nc5ccccc5s4)CC3)[C@@H]1C2	> 5	1	350	Activity (Cytochrome P450 2D6): 13 µM
CCc1cccc(N2C(=O)CN(C3CCN(CC4=CC[C@H]5C[C@@H]4C5(C)C)CC3)C2=O)c1	4.7	190	380	–
CSc1cccc(N2C(=O)CN(C3CCN(CC4=CC[C@H]5C[C@@H]4C5(C)C)CC3)C2=O)c1	5	230	750	–
CC1(C)[C@H]2CC=C(CN3CCC(N4CCN(c5cc(F)cc(C(F)(F)F)c5)C4=O)CC3)[C@@H]1C2	4.6	88	200	–
CN(c1nc2cccc(Cl)c2s1)C1CCN(CC2=CC[C@H]3C[C@@H]2C3(C)C)CC1	> 5	–	620	Activity (Cytochrome P450 2D6): 4.1 µM
CC1(C)[C@H]2CC=C(CN3CCC(N4CC(=O)N(c5cccc(C(F)(F)F)c5)C4=O)CC3)[C@@H]1C2	4.6	318	220	–
CCN(C(=O)Nc1cccc(C(F)(F)F)c1)C1CCN(CC2=CC[C@H]3C[C@@H]2C3(C)C)CC1	–	–	3600	–
CN(c1nc2ccccc2[nH]1)C1CCN(CC2=CC[C@H]3C[C@@H]2C3(C)C)CC1	4.2	–	950	–
CC1(C)[C@H]2CC=C(CN3CCC(Nc4nc5ccc(Br)cc5s4)CC3)[C@@H]1C2	> 5	150	130	Activity (Cytochrome P450 2D6): 0.7 µM
CC1(C)[C@H]2CC=C(CN3CCC(Nc4nc(-c5cc(C(F)(F)F)cc(C(F)(F)F)c5)ns4)CC3)[C@@H]1C2	5	16	270	half-life [4]: 5.4 h; fraction unbound (Homo sapiens): 0.003; AUC [5]: 10800 ng·h/mL; CL/F [6]: 2.8 mL/min/kg; solubility [7]: 2.7 µg/mL (≈ 5.09 µM); Cmax [8]: 2010 ng/mL; Activity (Cytochrome P450 2D6): 15 µM
CC1(C)[C@H]2CC=C(CN3CCC(Nc4nc(-c5ccc(Cl)c(Cl)c5)cs4)CC3)[C@@H]1C2	> 5	–	460	inhibition at 50 µM (CYP2D6): < 20%
CC1(C)[C@H]2CC=C(CN3CCC(Nc4nc5ccccc5o4)CC3)[C@@H]1C2	–	–	680	–
CN(C(=O)Nc1cccc(C(F)(F)F)c1)C1CCN(CC2=CC[C@H]3C[C@@H]2C3(C)C)CC1	–	–	180	–
CC1(C)[C@H]2CC=C(CN3CCC(N4CC(=O)N(c5cc(F)cc(C(F)(F)F)c5)C4=O)CC3)[C@@H]1C2	4.85	290	100	–
CN(c1nc2ccccc2o1)C1CCN(CC2=CC[C@H]3C[C@@H]2C3(C)C)CC1	4.6	–	720	–
CC1(C)[C@H]2CC=C(CN3CCC(N4CCN(c5cc(C(F)(F)F)cc(C(F)(F)F)c5)C4=O)CC3)[C@@H]1C2	> 5.5	7	170	–
CC1(C)[C@H]2CC=C(CN3CCC(N4CC(=O)N(c5cc(C(F)(F)F)cc(C(F)(F)F)c5)C4=O)CC3)[C@@H]1C2	> 5.5	220	26	–
CC1(C)[C@H]2CC=C(CN3CCC(N4CC(=O)N(c5ccc(Cl)c(C(F)(F)F)c5)C4=O)CC3)[C@@H]1C2	5.3	280	120	–
CC(=O)c1cccc(N2C(=O)CN(C3CCN(CC4=CC[C@H]5C[C@@H]4C5(C)C)CC3)C2=O)c1	3.4	–	–	inhibition [9]: < 20%
CC1(C)[C@H]2CC=C(CN3CCC(N(Cc4ccccc4)C(=O)Nc4cccc(C(F)(F)F)c4)CC3)[C@@H]1C2	–	–	–	inhibition [9]: < 20%
CC1(C)[C@H]2CC=C(CN3CCC(Nc4nc(-c5ccccc5)cs4)CC3)[C@@H]1C2	4.7	–	880	inhibition at 50 µM (CYP2D6): < 20%
CC1(C)[C@H]2CC=C(CN3CCC(Nc4nc(-c5cc(C(F)(F)F)cc(C(F)(F)F)c5)cs4)CC3)[C@@H]1C2	> 5	34	260	inhibition at 50 µM (CYP2D6): < 20%
CC1(C)[C@H]2CC=C(CN3CCC(Nc4nc5c(Br)cccc5s4)CC3)[C@@H]1C2	> 5	140	150	Activity (Cytochrome P450 2D6): 1.2 µM
CCc1cccc(N(C)C(=O)NC2CCN(CC3=CC[C@H]4C[C@@H]3C4(C)C)CC2)c1	–	–	3500	–
CN(c1nc2ccccc2s1)C1CCN(CC2=CC[C@H]3C[C@@H]2C3(C)C)CC1	> 5	78	140	Activity (Cytochrome P450 2D6): 2.2 µM
CN(c1nc2c(Cl)cccc2s1)C1CCN(CC2=CC[C@H]3C[C@@H]2C3(C)C)CC1	5	–	460	–
CN(c1nc2ccc(Cl)cc2s1)C1CCN(CC2=CC[C@H]3C[C@@H]2C3(C)C)CC1	5	48	170	Activity (Cytochrome P450 2D6): 7.3 µM
CN(c1nc2cc(Cl)ccc2s1)C1CCN(CC2=CC[C@H]3C[C@@H]2C3(C)C)CC1	5	41	290	Activity (Cytochrome P450 2D6): 3.5 µM
